The values below come from ChEMBL document CHEMBL1144569 (Bioorg Med Chem, 2007).

What is called EC50 is the concentration needed to bring the measured effect to its halfway point.

For test [1], the target named is T1, Cannabinoid receptor 2 (Homo sapiens, UniProt P34972). Description: Agonist activity at CB2 receptor expressed in HL60 cells assessed as increase in intracellular free calcium concentrations. Format: functional, cell-based, HL-60.
The target in test [2] is Cannabinoid receptor 1 (Homo sapiens) (UniProt P21554). Nature of the test: Antagonist activity at CB1 receptor expressed in NG108-15 cells assessed as abrogation of 2-archidonoylglycerol-induced increase in intracellular free calcium levels. Format: functional, cell-based.
Sequence of Cannabinoid receptor 1 (Homo sapiens) (P21554 whole entry): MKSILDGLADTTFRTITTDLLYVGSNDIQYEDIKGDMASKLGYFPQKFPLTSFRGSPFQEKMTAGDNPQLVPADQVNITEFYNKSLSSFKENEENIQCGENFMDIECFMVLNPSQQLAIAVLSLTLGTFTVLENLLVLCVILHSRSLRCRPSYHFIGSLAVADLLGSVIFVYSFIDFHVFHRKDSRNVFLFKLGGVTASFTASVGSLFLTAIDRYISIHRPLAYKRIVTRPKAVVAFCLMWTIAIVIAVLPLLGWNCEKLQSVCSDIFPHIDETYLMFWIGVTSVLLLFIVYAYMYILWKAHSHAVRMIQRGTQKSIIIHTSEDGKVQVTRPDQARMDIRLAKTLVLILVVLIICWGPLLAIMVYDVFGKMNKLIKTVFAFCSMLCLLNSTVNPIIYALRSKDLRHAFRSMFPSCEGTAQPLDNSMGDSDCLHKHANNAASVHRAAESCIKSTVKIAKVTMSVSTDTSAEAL
Test [3] deals with T1, Cannabinoid receptor 2. Nature of the test: Antagonist activity at CB2 receptor expressed in HL60 cells assessed as abrogation of 2-archidonoylglycerol-induced increase in intracellular free calcium levels. Format: functional, cell-based. To be noted: HL-60.

Calls of active or inactive are those of the source. No cut-off for these calls is given here.

T1 sequence (P34972 whole entry): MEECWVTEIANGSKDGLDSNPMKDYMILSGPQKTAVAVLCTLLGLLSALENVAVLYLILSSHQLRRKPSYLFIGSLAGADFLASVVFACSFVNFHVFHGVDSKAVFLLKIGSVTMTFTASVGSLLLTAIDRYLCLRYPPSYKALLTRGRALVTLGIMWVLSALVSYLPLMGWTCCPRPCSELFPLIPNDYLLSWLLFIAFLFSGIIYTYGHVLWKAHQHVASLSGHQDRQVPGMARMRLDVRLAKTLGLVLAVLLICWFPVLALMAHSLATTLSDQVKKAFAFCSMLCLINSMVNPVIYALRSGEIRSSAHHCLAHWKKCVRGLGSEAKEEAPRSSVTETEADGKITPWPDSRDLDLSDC

On to `CCCCC/C=C\C/C=C\C/C=C\C/C=C\CCCC(=O)OC(CO)CO` [2-ARACHIDONOYLGLYCEROL], for which the EC50 at Cannabinoid receptor 2 [1] was determined as 17 nM. Besides, the result (in test [2]; on Cannabinoid receptor 2 [3]) was Active.
